Assays:
ER protein [1] = target: T1, ER protein (Homo sapiens, UniProt P03372); assay: Western blotting analysis of ER protein degradation in MCF-7 cell line; type: cell-based; parameters: western blotting detection of the level of intracellular ER protein; endogenous in cells; details: MCF-7 cells, Western blot gray values vs DMSO control
T1 sequence (P03372 1-595): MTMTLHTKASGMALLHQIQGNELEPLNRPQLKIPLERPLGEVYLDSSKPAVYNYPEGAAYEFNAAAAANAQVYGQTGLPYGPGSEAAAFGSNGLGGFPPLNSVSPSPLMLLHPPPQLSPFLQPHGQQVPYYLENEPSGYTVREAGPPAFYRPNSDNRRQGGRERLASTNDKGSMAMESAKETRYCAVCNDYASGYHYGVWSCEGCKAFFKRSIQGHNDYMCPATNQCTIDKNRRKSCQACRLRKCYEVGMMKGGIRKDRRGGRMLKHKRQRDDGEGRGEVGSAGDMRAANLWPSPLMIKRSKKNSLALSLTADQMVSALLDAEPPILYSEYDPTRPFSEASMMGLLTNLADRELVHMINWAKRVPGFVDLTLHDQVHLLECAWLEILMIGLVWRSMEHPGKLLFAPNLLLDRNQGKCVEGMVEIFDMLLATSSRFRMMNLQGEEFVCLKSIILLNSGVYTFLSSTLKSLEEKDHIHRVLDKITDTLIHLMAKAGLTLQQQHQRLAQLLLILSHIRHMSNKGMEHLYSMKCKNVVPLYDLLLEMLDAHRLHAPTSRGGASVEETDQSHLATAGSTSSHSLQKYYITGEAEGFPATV
Protocol: MCF-7 were cultured in ncubator with 5% CO2 at 37° C. Complete medium was EMEM supplemented with 10% FBS, 100 U/mL Penicillin and Streptomycin, and 0.77 μg/mL recombinant human insulin. […]
DC50 value (the drug concentration required for degrading proteins by 50%, abbreviated as DC50) reads method: comparing the gray values of the Western blotting bands for the drug treatment with the gray values of the Western blotting band for the DMSO control, and reading the drug concentration range corresponding to the gray value of the Western blotting bands for the drug treatment which is equal to half of the gray value of the Western blotting band for the DMSO control.
DC50 value could also be calculated as follows: using software ImageJ to quantify the gray values of the Western blotting bands for the drug treatment, fitting the relationship curve between drug concentrations and gray values, and from the fitted curve, calculating the drug concentration corresponding to half of the gray value of the Western blotting band for the DMSO control.

ER protein [2] = target: T1, ER protein; assay: Western blotting analysis of ER protein degradation in T47D cell line; type: cell-based; parameters: western blotting detection of the level of intracellular ER protein; endogenous in cells; host or cells: T47D; details: T47D cells; for DC50: degradation of ER protein, drug treatment for 16 hours, Western blot gray values vs DMSO control, read-out: DC50 (nM)/T47Dcell line
Protocol: T47D cells were cultured in an incubator with 5% CO2 at 37° C. Complete medium was RPMI1640 supplemented with 10% Foetal bovine serum (FBS), 100 U/ml Penicillin and Streptomycin, and 0.77 μg/mL recombinant human insulin. Western blotting analysis of T47D cell line: • Cells were plated in a 24-well plate at a cell seeding […] of 1.5×10^5 cells/mL, with 1 ml cell suspensions per well. • After 24 h the cells were adherent, and the cells in each well were treated with 1 μL a certain concentration of ER protein regulators of the present disclosure. […] Afterwards, the membranes were block by using the Blocking Buffer, and the antibody incubation and development were performed. (The above procedures were all based on the antibody product manual of the manufacturer) DC50 value (the drug concentration required for degrading proteins by 50%, abbreviated as DC50) reads method: comparing the gray values of the Western blotting bands for the drug treatment with the gray values of the Western blotting band for the DMSO control, and reading the drug concentration range corresponding to the gray value of the Western blotting bands for the drug treatment which is equal to half of the gray value of the Western blotting band for the DMSO control. DC50 value could also be calculated as follows: using software ImageJ to quantify the gray values of the Western blotting bands for the drug treatment, fitting the relationship curve between drug concentrations and gray values, and from the fitted curve, calculating the drug concentration corresponding to half of the gray value of the Western blotting band for the DMSO control.

| DC50 (ER protein [1]) [nM] | DC50 (ER protein [2]) [nM] | Degradation of the ER protein in the T47D cell line (Western blotting) (ER protein [2]; FIGS. 1(A)-(O)) | SMILES |
| --- | --- | --- | --- |
| < 100 | < 50 |  | Cc1ncsc1-c1ccc(CNC(=O)[C@@H]2C[C@@H](O)CN2C(=O)[C@@H](NC(=O)CCOCCOCCC(=O)NCCOc2ccc(C(=C(CCCl)c3ccccc3)c3ccc(O)cc3)cc2)C(C)(C)C)cc1 [SIAIS208017, (2S,4R)-1-((S)-2-(tert-butyl)-16-(4-(4-chloro-1-(4-hydroxyphenyl)-2-phenylbut-1-en-1-yl)phenoxy)-4,13-dioxo-7,10-dioxa-3,14-diazahexadecanoyl)-4-hydroxy-N-(4-(4-methylthiazol-5-yl)benzyl)pyrrolidine-2-carboxamide] |
|  | < 50 |  | CCC(=C(c1ccc(O)cc1)c1ccc(OCCNC(=O)CCCCCCCCCC(=O)N[C@H](C(=O)N2C[C@H](O)C[C@H]2C(=O)NCc2ccc(-c3scnc3C)cc2)C(C)(C)C)cc1)c1ccc(O)cc1 [SIAIS208169, N1-(2-(4-(1,2-bis(4-hydroxyphenyl)but-1-en-1-yl)phenoxy)ethyl)-N11-((S)-1-((2S,4R)-4-hydroxy-2-((4-(4-methylthiazol-5-yl)benzyl)carbamoyl)pyrrolidin-1-yl)-3,3-dimethyl-1-oxobutan-2-yl)undecanediamide] |
|  | < 50 |  | CCC(=C(c1ccc(O)cc1)c1ccc(OCCNC(=O)CCN2CCN(CCNc3cccc4c3C(=O)N(C3CCC(=O)NC3=O)C4=O)CC2)cc1)c1ccc(O)cc1 (centres unmarked) [SIAIS208172, N-(2-(4-(1,2-bis(4-hydroxyphenyl)but-1-en-1-yl)phenoxy)ethyl)-3-(4-(2-((2-(2,6-dioxopiperidin-3-yl)-1,3-dioxoisoindolin-4-yl)amino)ethyl)piperazin-1-yl)propanamide] |
|  | < 50 |  | CCC(=C(c1ccc(O)cc1)c1ccc(OCCNC(=O)CCOCCOCCOCCC(=O)N[C@H](C(=O)N2C[C@H](O)C[C@H]2C(=O)NCc2ccc(-c3scnc3C)cc2)C(C)(C)C)cc1)c1ccc(O)cc1 [SIAIS208174, (2S,4R)-1-((S)-19-(4-(1,2-bis(4-hydroxyphenyl)but-1-en-1-yl)phenoxy)-2-(tert-butyl)-4,16-dioxo-7,10,13-trioxa-3,17-diazanonadecanoyl)-4-hydroxy-N-(4-(4-methylthiazol-5-yl)benzyl)pyrrolidine-2-carboxamide] |
|  | 50 |  | O=C(CCCCCCNc1cccc2c1CN(C1CCC(=O)NC1=O)C2=O)NCCOc1ccc(C(=C(CCCl)c2ccccc2)c2ccc(O)cc2)cc1 (centres unmarked) [SIAIS251033, N-(2-(4-(4-chloro-1-(4-hydroxyphenyl)-2-phenylbut-1-en-1-yl)phenoxy)ethyl)-7-((2-(2,6-dioxopiperidin-3-yl)-1-oxoisoindolin-4-yl)amino)heptanamide] |
|  | < 50 |  | Cc1ncsc1-c1ccc(CNC(=O)[C@@H]2C[C@@H](O)CN2C(=O)[C@@H](NC(=O)CCCC(=O)N2CCN(CCOc3ccc(C(=C(CCCl)c4ccccc4)c4ccc(O)cc4)cc3)CC2)C(C)(C)C)cc1 [SIAIS251042, (2S,4R)-1-((S)-2-(5-(4-(2-(4-(4-chloro-1-(4-hydroxyphenyl)-2-phenylbut-1-en-1-yl)phenoxy)ethyl)piperazin-1-yl)-5-oxopentanamido)-3,3-dimethylbutanoyl)-4-hydroxy-N-(4-(4-methylthiazol-5-yl)benzyl)pyrrolidine-2-carboxamide] |
|  | < 50 |  | Cc1ncsc1-c1ccc(CNC(=O)[C@@H]2C[C@@H](O)CN2C(=O)[C@@H](NC(=O)CCCCC(=O)N2CCN(CCOc3ccc(C(=C(CCCl)c4ccccc4)c4ccc(O)cc4)cc3)CC2)C(C)(C)C)cc1 [SIAIS251043, (2S,4R)-1-((S)-2-(6-(4-(2-(4-(4-chloro-1-(4-hydroxyphenyl)-2-phenylbut-1-en-1-yl)phenoxy)ethyl)piperazin-1-yl)-6-oxohexanamido)-3,3-dimethylbutanoyl)-4-hydroxy-N-(4-(4-methylthiazol-5-yl)benzyl)pyrrolidine-2-carboxamide] |
|  | < 50 |  | Cc1ncsc1-c1ccc(CNC(=O)[C@@H]2C[C@@H](O)CN2C(=O)[C@@H](NC(=O)CCCCCCCC(=O)N2CCN(CCOc3ccc(C(=C(CCCl)c4ccccc4)c4ccc(O)cc4)cc3)CC2)C(C)(C)C)cc1 [SIAIS251046, (2S,4R)-1-((S)-2-(9-(4-(2-(4-(4-chloro-1-(4-hydroxyphenyl)-2-phenylbut-1-en-1-yl)phenoxy)ethyl)piperazin-1-yl)-9-oxononanamido)-3,3-dimethylbutanoyl)-4-hydroxy-N-(4-(4-methylthiazol-5-yl)benzyl)pyrrolidine-2-carboxamide] |
|  | < 50 |  | Cc1ncsc1-c1ccc(CNC(=O)[C@@H]2C[C@@H](O)CN2C(=O)[C@@H](NC(=O)CCCCCCCCC(=O)N2CCN(CCOc3ccc(C(=C(CCCl)c4ccccc4)c4ccc(O)cc4)cc3)CC2)C(C)(C)C)cc1 [SIAIS251047, (2S,4R)-1-((S)-2-(10-(4-(2-(4-(4-chloro-1-(4-hydroxyphenyl)-2-phenylbut-1-en-1-yl)phenoxy)ethyl)piperazin-1-yl)-10-oxodecanamido)-3,3-dimethylbutanoyl)-4-hydroxy-N-(4-(4-methylthiazol-5-yl)benzyl)pyrrolidine-2-carboxamide] |
|  | < 50 |  | Cc1ncsc1-c1ccc(CNC(=O)[C@@H]2C[C@@H](O)CN2C(=O)[C@@H](NC(=O)CCOCCOCCC(=O)N2CCN(CCOc3ccc(C(=C(CCCl)c4ccccc4)c4ccc(O)cc4)cc3)CC2)C(C)(C)C)cc1 [SIAIS251049, (2S,4R)-1-((S)-2-(3-(2-(3-(4-(2-(4-(4-chloro-1-(4-hydroxyphenyl)-2-phenylbut-1-en-1-yl)phenoxy)ethyl)piperazin-1-yl)-3-oxopropoxy)ethoxy)propanamido)-3,3-dimethylbutanoyl)-4-hydroxy-N-(4-(4-methylthiazol-5-yl)benzyl)pyrrolidine-2-carboxamide] |
|  | < 50 |  | Cc1ncsc1-c1ccc(CNC(=O)[C@@H]2C[C@@H](O)CN2C(=O)[C@@H](NC(=O)CCOCCOCCOCCC(=O)N2CCN(CCOc3ccc(C(=C(CCCl)c4ccccc4)c4ccc(O)cc4)cc3)CC2)C(C)(C)C)cc1 [SIAIS251050, (2S,4R)-1-((S)-2-(tert-butyl)-16-(4-(2-(4-(4-chloro-1-(4-hydroxyphenyl)-2-phenylbut-1-en-1-yl)phenoxy)ethyl)piperazin-1-yl)-4,16-dioxo-7,10,13-trioxa-3-azahexadecanoyl)-4-hydroxy-N-(4-(4-methylthiazol-5-yl)benzyl)pyrrolidine-2-carboxamide] |
|  | < 50 |  | Cc1ncsc1-c1ccc(CNC(=O)[C@@H]2C[C@@H](O)CN2C(=O)[C@@H](NC(=O)CCOCCOCCOCCOCCC(=O)N2CCN(CCOc3ccc(C(=C(CCCl)c4ccccc4)c4ccc(O)cc4)cc3)CC2)C(C)(C)C)cc1 [SIAIS251051, (2S,4R)-1-((S)-2-(tert-butyl)-19-(4-(2-(4-(4-chloro-1-(4-hydroxyphenyl)-2-phenylbut-1-en-1-yl)phenoxy)ethyl)piperazin-1-yl)-4,19-dioxo-7,10,13,16-tetraoxa-3-azanonadecanoyl)-4-hydroxy-N-(4-(4-methylthiazol-5-yl)benzyl)pyrrolidine-2-carboxamide] |
|  |  | did not degrade the ER protein | NCCOc1ccc(C(=C(CCCl)c2ccccc2)c2ccc(O)cc2)cc1 [Toremifene derivative B, 4-(1-(4-(2-aminoethoxy)phenyl)-4-chloro-2-phenylbut-1-en-1-yl)phenol, reference compound] |

— patent US20220016102A1, “ER PROTEIN REGULATORS AND USE THEREOF” (ShanghaiTech University, priority 2018, published 2022)
